Laboratory results published in US20260022142A1, “MACROCYCLIC IMMUNOMODULATORS” (Bristol-Myers Squibb Company, priority 2022, published 2026).
pIC50: −log10 of the molar value. Bridge positions count the residues as written; N and C are the ends. Square brackets hold non-standard residues; d marks the D form. Peptide text beside a SMILES is read from it. * marks the point of attachment. ξ: configuration not given here. Phe(4-COOH) = N[C@@H](Cc1ccc(C(=O)O)cc1)C(=O)O; Bip = N[C@@H](Cc1ccc(-c2ccccc2)cc1)C(=O)O; Phe(3-F) = N[C@@H](Cc1cccc(F)c1)C(=O)O; Phe(3-Me) = Cc1cccc(C[C@H](N)C(=O)O)c1; Abu(3S-NH2) = C[C@H](N)[C@H](N)C(=O)O; NH(CH2)12COOH = O=C(O)CCCCCCCCCCCCN*; Val(3-OH) = CC(C)(O)[C@H](N)C(=O)O; hArg = N=C(N)NCCCC[C@H](N)C(=O)O; 4Pal = N[C@@H](Cc1ccncc1)C(=O)O; Cha = N[C@@H](CC1CCCCC1)C(=O)O; Cit = NC(=O)NCCC[C@H](N)C(=O)O; Thr(3ξ) = CC(O)[C@H](N)C(=O)O; Carboxymethyl = O=C(O)C*; Nle = CCCC[C@H](N)C(=O)O; Orn = NCCC[C@H](N)C(=O)O; Pra = C#CC[C@H](N)C(=O)O; Aun = NCCCCCCCCCCC(=O)O; Dab = NCC[C@H](N)C(=O)O; Dap = NC[C@H](N)C(=O)O; AEEA = NCCOCCOCC(=O)O

The compounds below were run against T1, PD-1/PD-L1 interaction (PE-labeled human PD-L1-Ig binding to Jurkat cell line over-expressing human PD-1) (Homo sapiens, UniProt Q15116) (assay: Jurkat-PD-1 Cell Binding High-Content Screening Assay (CBA)). Conditions: Jurkat cell line over-expressing human PD-1; PE-labeled PD-L1-Ig 20 nM final; read-out: Jurkat hPD1-PDL1 IC50.
T1 construct: expressed in transfected cells; host or cells: Jurkat
T1 sequence (Q15116 25-288): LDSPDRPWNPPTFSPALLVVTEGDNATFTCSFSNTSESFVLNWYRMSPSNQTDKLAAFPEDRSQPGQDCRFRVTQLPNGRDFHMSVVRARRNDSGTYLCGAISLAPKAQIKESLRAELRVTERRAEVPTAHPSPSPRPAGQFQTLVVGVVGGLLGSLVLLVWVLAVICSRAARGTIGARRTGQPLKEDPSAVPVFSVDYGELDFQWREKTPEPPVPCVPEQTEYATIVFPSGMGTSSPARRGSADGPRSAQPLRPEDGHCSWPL
Assay type: cell-based
How it was run: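 Binding of fluorescent PD-L1-Ig (20 nM final) to Jurkat-PD-1 cells was measured by automated imaging after 1 h, following a 2 h compound pre-treatment at 37° C.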

pIC50 | Compound
7.53 | CC(C)C[C@H]1NC(=O)[C@H](CCCN)NC(=O)[C@H](C(C)C)NC(=O)[C@H](Cc2ccc(-c3ccccc3)cc2)NC(=O)[C@H](C(C)C)NC(=O)[C@H](Cc2c[nH]c3ccccc23)NC(=O)[C@H](CC(=O)O)NC(=O)[C@H](Cc2c[nH]cn2)NC(=O)[C@H](CCCNC(=N)N)NC(=O)CSC[C@@H](C(=O)N[C@@H](CCN)C(=O)NCCCCCCCCCCC(=O)O)NC(=O)[C@H](CO)NC(=O)[C@H](C(C)C)NC(=O)[C@H](CC2CCCCC2)NC(=O)[C@H](CCN)NC1=O [Compound 3272] ({CH2CO}-RHDWV[Bip]V[Orn][dL][Dab][Cha]VSC[Dab][Aun]-OH; thioether N-14)
7.95 | Cc1cccc(C[C@@H]2NC(=O)[C@H](CC(=O)O)NC(=O)[C@H](Cc3ccc(OCC(=O)O)cc3)NC(=O)[C@H](CN)NC(=O)CSC[C@@H](C(=O)N[C@@H](CCCCN)C(=O)NCCOCCOCC(=O)NCCCCCCCCCCC(=O)O)NC(=O)[C@H](CN)NC(=O)[C@H](C(C)C)NC(=O)[C@H](CC3CCCCC3)NC(=O)[C@H](CCN)NC(=O)[C@@H](CC(C)C)NC(=O)[C@H](CCCN)NC(=O)[C@H](CCCNC(N)=O)NC(=O)[C@H](Cc3ccc(-c4ccccc4)cc3)NC(=O)[C@H](C(C)C)NC2=O)c1 [Compound 2649] ({CH2CO}-[Dap]Y(Carboxymethyl)D[Phe(3-Me)]V[Bip][Cit][Orn][dL][Dab][Cha]V[Dap]CK[AEEA][Aun]-OH; thioether N-14)
7.65 | CC(C)C[C@H]1NC(=O)[C@H](CCCN)NC(=O)[C@H](C(C)C)NC(=O)[C@H](Cc2ccc(-c3ccccc3)cc2)NC(=O)[C@H](C(C)C)NC(=O)[C@H](Cc2c[nH]c3ccccc23)NC(=O)[C@H](CC(=O)O)NC(=O)[C@H](Cc2ccc(OCC(=O)O)cc2)NC(=O)[C@H](CN)NC(=O)CSC[C@@H](C(=O)N[C@@H](CCN)C(=O)NCCCCCCCCCCC(=O)O)NC(=O)[C@H](CCC(=O)O)NC(=O)[C@H](C(C)C)NC(=O)[C@H](CC2CCCCC2)NC(=O)[C@H](Cc2c[nH]cn2)NC1=O [Compound 2788] ({CH2CO}-[Dap]Y(Carboxymethyl)DWV[Bip]V[Orn][dL]H[Cha]VEC[Dab][Aun]-OH; thioether N-14)
7.43 | C#CC[C@H](NC(=O)COCCOCCNC(=O)[C@H](CCCN)NC(=O)[C@@H]1CSCC(=O)N[C@@H](Cc2ccncc2)C(=O)N[C@@H](Cc2ccc(OCC(=O)O)cc2)C(=O)N[C@@H](CC(=O)O)C(=O)N[C@@H](Cc2c[nH]c3ccccc23)C(=O)N[C@@H](C(C)C)C(=O)N[C@@H](Cc2ccc(-c3ccccc3)cc2)C(=O)N[C@@H]([C@@H](C)CC)C(=O)N[C@@H](CCCN)C(=O)N[C@H](CC(C)C)C(=O)N[C@@H](CCN)C(=O)N[C@@H](CC(C)C)C(=O)N[C@@H](C(C)C)C(=O)N[C@@H]([C@@H](C)O)C(=O)N1)C(=O)N[C@@H](CCCNC(=N)N)C(=O)NCCCCCCCCCCC(=O)O [Compound 1203] ({CH2CO}-[4Pal]Y(Carboxymethyl)DWV[Bip]I[Orn][dL][Dab]LVTC[Orn][AEEA][Pra]R[Aun]-OH; thioether N-14)
7.59 | Cc1cccc(C[C@@H]2NC(=O)[C@H](CC(=O)O)NC(=O)[C@H](Cc3ccc(OCC(=O)O)cc3)NC(=O)[C@H](CCCNC(=N)N)NC(=O)CSC[C@@H](C(=O)N[C@H](CC(N)=O)C(=O)NCCCCCCCCCCC(=O)O)NC(=O)[C@H](C(C)O)NC(=O)[C@H](C(C)C)NC(=O)[C@H](CC3CCCCC3)NC(=O)[C@H](CCN)NC(=O)[C@@H](CC(C)C)NC(=O)[C@H](CCCN)NC(=O)[C@H](Cc3ccc(O)cc3)NC(=O)[C@H](Cc3ccc(-c4ccccc4)cc3)NC(=O)[C@H](C(C)C)NC2=O)c1 (stereo partly drawn) [Compound 3452] ({CH2CO}-RY(Carboxymethyl)D[Phe(3-Me)]V[Bip]Y[Orn][dL][Dab][Cha]V[Thr(3ξ)]C[dN][Aun]-OH; thioether N-14)
7.59 | Cc1cccc(C[C@@H]2NC(=O)[C@H](CC(=O)O)NC(=O)[C@H](Cc3ccc(OCC(=O)O)cc3)NC(=O)[C@H](CCCNC(=N)N)NC(=O)CSC[C@@H](C(=O)N[C@@H](CCCCN)C(=O)NCCCCCCCCCCC(=O)O)NC(=O)[C@H](C(C)O)NC(=O)[C@H](C(C)C)NC(=O)[C@H](CC3CCCCC3)NC(=O)[C@H](CCN)NC(=O)[C@@H](CC(C)C)NC(=O)[C@H](CCCN)NC(=O)[C@H](C(C)C)NC(=O)[C@H](Cc3ccc(-c4ccccc4)cc3)NC(=O)[C@H](C(C)C)NC2=O)c1 (stereo partly drawn) [Compound 3475] ({CH2CO}-RY(Carboxymethyl)D[Phe(3-Me)]V[Bip]V[Orn][dL][Dab][Cha]V[Thr(3ξ)]CK[Aun]-OH; thioether N-14)
8.00 | CC(=O)NCCCC[C@@H]1NC(=O)[C@H](Cc2ccc(-c3ccccc3)cc2)NC(=O)[C@H](Cc2ccc(O)cc2)NC(=O)[C@H](Cc2cccc(C)c2)NC(=O)[C@H](CC(=O)O)NC(=O)[C@H](Cc2ccc(OCC(=O)O)cc2)NC(=O)[C@H](CCCNC(=N)N)NC(=O)CSC[C@@H](C(=O)N[C@H](CC(N)=O)C(=O)NCCCCCCCCCCC(=O)O)NC(=O)[C@H](C(C)O)NC(=O)[C@H](C(C)C)NC(=O)[C@H](CC2CCCCC2)NC(=O)[C@H](CCN)NC(=O)[C@@H](CC(C)C)NC(=O)[C@H](CCCNC(N)=O)NC1=O (stereo partly drawn) [Compound 3541] ({CH2CO}-RY(Carboxymethyl)D[Phe(3-Me)]Y[Bip]K(Ac)[Cit][dL][Dab][Cha]V[Thr(3ξ)]C[dN][Aun]-OH; thioether N-14)
8.08 | Cc1cccc(C[C@@H]2NC(=O)[C@H](CC(=O)O)NC(=O)[C@H](Cc3ccc(OCC(=O)O)cc3)NC(=O)[C@H](CN)NC(=O)CSC[C@@H](C(=O)N[C@@H](CCN)C(=O)NCCOCCOCC(=O)NCCCCCCCCCCC(=O)O)NC(=O)[C@H](CCCN)NC(=O)[C@H](C(C)C)NC(=O)[C@H](CC3CCCCC3)NC(=O)[C@H](CCN)NC(=O)[C@@H](CC(C)C)NC(=O)[C@H](CCCN)NC(=O)[C@H](Cc3ccc(O)cc3)NC(=O)[C@H](Cc3ccc(-c4ccccc4)cc3)NC(=O)[C@H](Cc3cccc(F)c3)NC2=O)c1 [Compound 2262] ({CH2CO}-[Dap]Y(Carboxymethyl)D[Phe(3-Me)][Phe(3-F)][Bip]Y[Orn][dL][Dab][Cha]V[Orn]C[Dab][AEEA][Aun]-OH; thioether N-14)
8.34 | Cc1cccc(C[C@@H]2NC(=O)[C@H](CC(=O)O)NC(=O)[C@H](Cc3ccc(OCC(=O)O)cc3)NC(=O)[C@H](CCCNC(=N)N)NC(=O)CSC[C@@H](C(=O)N[C@@H](CCN)C(=O)NCCCCCCCCCCC(=O)O)NC(=O)[C@H](CO)NC(=O)[C@H](C(C)(C)O)NC(=O)[C@H](CC3CCCCC3)NC(=O)[C@H](CCN)NC(=O)[C@@H](CC(C)C)NC(=O)[C@H](CCCN)NC(=O)[C@H](Cc3ccc(OCC(=O)O)cc3)NC(=O)[C@H](Cc3ccc(-c4ccccc4)cc3)NC(=O)[C@H](Cc3ccc(OCC(=O)O)cc3)NC2=O)c1 [Compound 2171] ({CH2CO}-RY(Carboxymethyl)D[Phe(3-Me)]Y(Carboxymethyl)[Bip]Y(Carboxymethyl)[Orn][dL][Dab][Cha][Val(3-OH)]SC[Dab][Aun]-OH; thioether N-14)
7.26 | Cc1cccc(C[C@@H]2NC(=O)[C@H](CC(=O)O)NC(=O)[C@H](Cc3ccc(OCC(=O)O)cc3)NC(=O)[C@H](CN)NC(=O)CSC[C@@H](C(=O)N[C@@H](CCN)C(=O)NCCCCCCCCCCC(=O)O)NC(=O)[C@H]([C@H](C)N)NC(=O)[C@H](C(C)C)NC(=O)[C@H](CC3CCCCC3)NC(=O)[C@H](CCN)NC(=O)[C@@H](CC(C)C)NC(=O)[C@H](CCCN)NC(=O)[C@H](Cc3ccc(OCC(=O)O)cc3)NC(=O)[C@H](Cc3ccc(-c4ccccc4)cc3)NC(=O)[C@H](Cc3ccc(OCC(=O)O)cc3)NC2=O)c1 [Compound 2173] ({CH2CO}-[Dap]Y(Carboxymethyl)D[Phe(3-Me)]Y(Carboxymethyl)[Bip]Y(Carboxymethyl)[Orn][dL][Dab][Cha]V[Abu(3S-NH2)]C[Dab][Aun]-OH; thioether N-14)
8.11 | CC(C)C[C@H]1NC(=O)[C@H](CCCN)NC(=O)[C@H](C(C)C)NC(=O)[C@H](Cc2ccc(-c3ccccc3)cc2)NC(=O)[C@H](C(C)C)NC(=O)[C@H](Cc2c[nH]c3ccccc23)NC(=O)[C@H](CC(=O)O)NC(=O)[C@H](Cc2ccc(OCC(=O)O)cc2)NC(=O)[C@H](CCCCNC(=N)N)NC(=O)CSC[C@@H](C(=O)NCC(=O)NCCOCCOCC(=O)N[C@@H](CCCN)C(=O)NCCCCCCCCCCC(=O)O)NC(=O)[C@H](CCN)NC(=O)[C@H](C(C)C)NC(=O)[C@H](CC2CCCCC2)NC(=O)[C@H](CCN)NC1=O [Compound 3197] ({CH2CO}-[hArg]Y(Carboxymethyl)DWV[Bip]V[Orn][dL][Dab][Cha]V[Dab]CG[AEEA][Orn][Aun]-OH; thioether N-14)
8.59 | CCCC[C@@H]1NC(=O)CSC[C@@H](C(=O)N[C@@H](CCN)C(=O)NCCOCCOCC(=O)NCCOCCOCC(=O)NCCCCCCCCCCCCC(=O)O)NC(=O)[C@H](CO)NC(=O)[C@H](C(C)(C)O)NC(=O)[C@H](CC2CCCCC2)NC(=O)[C@H](CCN)NC(=O)[C@@H](CC(C)C)NC(=O)[C@H](CCCN)NC(=O)[C@H](Cc2ccc(C(=O)O)cc2)NC(=O)[C@H](Cc2ccc(-c3ccccc3)cc2)NC(=O)[C@H](Cc2ccc(C(=O)O)cc2)NC(=O)[C@H](Cc2cccc(C)c2)NC(=O)[C@H](CC(=O)O)NC(=O)[C@H](Cc2ccc(OCC(=O)O)cc2)NC1=O [Compound 2891] ({CH2CO}-[Nle]Y(Carboxymethyl)D[Phe(3-Me)][Phe(4-COOH)][Bip][Phe(4-COOH)][Orn][dL][Dab][Cha][Val(3-OH)]SC[Dab][AEEA][AEEA]-{NH(CH2)12COOH}; thioether N-14)
8.06 | CCCC[C@@H]1NC(=O)CSC[C@@H](C(=O)N[C@@H](CCN)C(=O)NCCCCCCCCCCC(=O)O)NC(=O)[C@H](CO)NC(=O)[C@H](C(C)(C)O)NC(=O)[C@H](CC2CCCCC2)NC(=O)[C@H](CCN)NC(=O)[C@@H](CC(C)C)NC(=O)[C@H](CCCN)NC(=O)[C@H](Cc2ccc(OCC(=O)O)cc2)NC(=O)[C@H](Cc2ccc(-c3ccccc3)cc2)NC(=O)[C@H](Cc2ccc(OCC(=O)O)cc2)NC(=O)[C@H](Cc2cccc(C)c2)NC(=O)[C@H](CC(=O)O)NC(=O)[C@H](Cc2ccc(OCC(=O)O)cc2)NC1=O [Compound 2210] ({CH2CO}-[Nle]Y(Carboxymethyl)D[Phe(3-Me)]Y(Carboxymethyl)[Bip]Y(Carboxymethyl)[Orn][dL][Dab][Cha][Val(3-OH)]SC[Dab][Aun]-OH; thioether N-14)
